Data taken from PubChem BioAssay AID248 (DTP/NCI, 2004).
Several values for one entry are separate records, joined by “and”; a condition that tells them apart may be missing. Identical values can stand only once. Inconclusive results and toxic doses are left out. Cut-off read from the data, not from the text of the source: active = T/C of 150% or more; inactive = T/C below 125%.

System: L1210 leukemia ip in BDF1 mice, survival T/C
Assay: NCI In Vivo Anticancer Drug Screen. Data for tumor model L1210 Leukemia (intraperitoneal) in B6D2F1 (BDF1) mice
Details: endpoint: mean survival time, higher = longer survival
Outline: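 Mice bearing the transplanted tumor received compound or vehicle. Survival of the treated group was divided by that of the vehicle-treated control group to give the ratio.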

[1] = dose: 100.0 mg/kg/injection, schedule: Q01DX001 (ip), vehicle: Klucel (hydroxypropylcellulose) (HPC)
[2] = dose: 200.0 mg/kg/injection, schedule: Q01DX001 (ip), vehicle: Klucel (hydroxypropylcellulose) (HPC)
[3] = dose: 400.0 mg/kg/injection, schedule: Q01DX001 (ip), vehicle: Klucel (hydroxypropylcellulose) (HPC)
[4] = dose: 100.0 mg/kg/injection, schedule: Q04DX003 (ip), vehicle: saline with Tween-80
[5] = dose: 200.0 mg/kg/injection, schedule: Q04DX003 (ip), vehicle: saline with Tween-80
[6] = dose: 100.0 mg/kg/injection, schedule: Q01DX001 (ip), vehicle: saline
[7] = dose: 200.0 mg/kg/injection, schedule: Q01DX001 (ip), vehicle: saline
[8] = dose: 400.0 mg/kg/injection, schedule: Q01DX001 (ip), vehicle: saline
[9] = dose: 100.0 mg/kg/injection, schedule: Q01DX009 (ip), vehicle: Klucel (hydroxypropylcellulose) (HPC)
[10] = dose: 200.0 mg/kg/injection, schedule: Q01DX009 (ip), vehicle: Klucel (hydroxypropylcellulose) (HPC)
[11] = dose: 25.0 mg/kg/injection, schedule: Q01DX009 (ip), vehicle: saline
[12] = dose: 50.0 mg/kg/injection, schedule: Q01DX009 (ip), vehicle: saline
[13] = dose: 100.0 mg/kg/injection, schedule: Q01DX009 (ip), vehicle: saline
[14] = dose: 100.0 mg/kg/injection, schedule: Q04DX002 (ip), vehicle: Klucel (hydroxypropylcellulose) (HPC)
[15] = dose: 400.0 mg/kg/injection, schedule: Q01DX009 (ip), vehicle: Klucel (hydroxypropylcellulose) (HPC)
[16] = dose: 100.0 mg/kg/injection, schedule: Q04DX003 (ip), vehicle: Klucel (hydroxypropylcellulose) (HPC)
[17] = dose: 200.0 mg/kg/injection, schedule: Q04DX003 (ip), vehicle: Klucel (hydroxypropylcellulose) (HPC)
[18] = dose: 400.0 mg/kg/injection, schedule: Q04DX003 (ip), vehicle: Klucel (hydroxypropylcellulose) (HPC)
[19] = dose: 50.0 mg/kg/injection, schedule: Q01DX001 (ip), vehicle: saline
[20] = dose: 200.0 mg/kg/injection, schedule: Q04DX002 (ip), vehicle: saline with Tween-80

Measured: T/C

CC(=O)Nc1ccc(N=Nc2ccccc2)cc1
inactive: [1] 100 % of control | [2] 100 % of control | [3] 96 % of control

NC(N)=NCCCCCCN=C(N)N
inactive: dose: 6.25 mg/kg/injection, schedule: Q01DX Z (oral), vehicle: saline 106 % of control | dose: 6.25 mg/kg/injection, schedule: Q04DX003 (ip), vehicle: saline with Tween-80 100 % of control | dose: 12.5 mg/kg/injection, schedule: Q01DX Z (oral), vehicle: saline 103 % of control | dose: 12.5 mg/kg/injection, schedule: Q04DX003 (ip), vehicle: saline with Tween-80 100 % of control | dose: 25.0 mg/kg/injection, schedule: Q01DX Z (oral), vehicle: saline 103 % of control | dose: 25.0 mg/kg/injection, schedule: Q04DX003 (ip), vehicle: saline with Tween-80 99 % of control and 101 % of control

O=C(O)CS(=O)(=O)CC(=O)O
inactive: [4] 98 % of control | [5] 93 % of control

CCCC[N+](C)(C)CC[N+](C)(C)CCCC
inactive: [6] 102 % of control | [7] 105 % of control | [8] 102 % of control

COc1ccc2c(ccc3c2ncc2c(=O)[nH][nH]c23)c1
inactive: dose: 50.0 mg/kg/injection, schedule: Q01DX009 (ip), vehicle: Klucel (hydroxypropylcellulose) (HPC) 92 % of control | [9] 92 % of control | [10] 92 % of control

c1ccc(CN2CCCCc3ccccc32)cc1
inactive: [4] 93 % of control | [5] 88 % of control

CC(C)=CCC(C#N)(CCN(C)C)c1ccc2ccccc2c1 (stereo not drawn)
inactive: [11] 95 % of control | [12] 97 % of control | [13] 95 % of control

O=C(Nc1ccccc1)c1cc(N2CCOCC2)ccn1
inactive: [6] 97 % of control | [7] 95 % of control | [8] 91 % of control

O=C1Nc2ncnn2C1=O
inactive: dose: 100.0 mg/kg/injection, schedule: Q01DX005 (ip), vehicle: Klucel (hydroxypropylcellulose) (HPC) 98 % of control | [9] 101 % of control | [14] 93 % of control | dose: 200.0 mg/kg/injection, schedule: Q01DX005 (ip), vehicle: Klucel (hydroxypropylcellulose) (HPC) 98 % of control | [10] 93 % of control | dose: 200.0 mg/kg/injection, schedule: Q04DX002 (ip), vehicle: Klucel (hydroxypropylcellulose) (HPC) 96 % of control | dose: 400.0 mg/kg/injection, schedule: Q01DX005 (ip), vehicle: Klucel (hydroxypropylcellulose) (HPC) 98 % of control | [15] 101 % of control | dose: 400.0 mg/kg/injection, schedule: Q04DX002 (ip), vehicle: Klucel (hydroxypropylcellulose) (HPC) 104 % of control

COc1ccc(OC)c(NC(=O)Oc2ccc(NC(C)=O)cc2)c1
inactive: [9] 104 % of control | [10] 102 % of control | [15] 96 % of control

O=C1C=CC(=O)C2=C1C1c3ccccc3C2([N+](=O)[O-])c2ccccc21
inactive: [9] 100 % of control | [16] 105 % of control | [10] 92 % of control | [17] 97 % of control | dose: 200.0 mg/kg/injection, schedule: Q04DX003 (ip), vehicle: saline 97 % of control | [15] 100 % of control | [18] 102 % of control | dose: 400.0 mg/kg/injection, schedule: Q04DX003 (ip), vehicle: saline 102 % of control

O=[N+]([O-])c1ccc(Oc2ccc(F)cc2)c([N+](=O)[O-])c1
inactive: [19] 103 % of control | [6] 103 % of control | [7] 97 % of control | [8] 105 % of control

COC(=O)[C@@]12OC[C@]34[C@H]([C@@H](O)[C@@H]1O)[C@@]1(C)[C@H](O)C(=O)C=C(C)[C@@H]1C[C@H]3OC(=O)C(OC(C)=O)[C@@H]24 (stereo partly drawn)
inactive: dose: 125.0 micrograms/kg/injection, schedule: Q01DX009 (ip), vehicle: saline + alcohol 104 % of control | dose: 250.0 micrograms/kg/injection, schedule: Q01DX009 (ip), vehicle: saline + alcohol 105 % of control | dose: 500.0 micrograms/kg/injection, schedule: Q01DX009 (ip), vehicle: saline + alcohol 96 % of control | dose: 1000.0 micrograms/kg/injection, schedule: Q01DX009 (ip), vehicle: saline + alcohol 102 % of control | dose: 2000.0 micrograms/kg/injection, schedule: Q01DX009 (ip), vehicle: saline + alcohol 104 % of control

COc1ccc(Cl)cc1NC(=O)Oc1ccccc1C(N)=O
inactive: [11] 106 % of control and 113 % of control | dose: 25.0 mg/kg/injection, schedule: Q04DX002 (ip), vehicle: saline with Tween-80 104 % of control and 112 % of control | [12] 102 % of control | dose: 50.0 mg/kg/injection, schedule: Q04DX002 (ip), vehicle: saline with Tween-80 102 % of control and 91 % of control | dose: 100.0 mg/kg/injection, schedule: Q01DX001 (ip), vehicle: saline with Tween-80 107 % of control | dose: 100.0 mg/kg/injection, schedule: Q01DX009 (ip), vehicle: saline with Tween-80 86 % of control | [13] 98 % of control | [4] 104 % of control | dose: 200.0 mg/kg/injection, schedule: Q01DX001 (ip), vehicle: saline with Tween-80 108 % of control | [20] 110 % of control

O=C1OCC/C1=C/c1cccc(O)c1
inactive: dose: 3.12 mg/kg/injection, schedule: Q04DX002 (ip), vehicle: Klucel (hydroxypropylcellulose) (HPC) 97 % of control | dose: 6.25 mg/kg/injection, schedule: Q04DX002 (ip), vehicle: Klucel (hydroxypropylcellulose) (HPC) 108 % of control | dose: 12.5 mg/kg/injection, schedule: Q04DX002 (ip), vehicle: Klucel (hydroxypropylcellulose) (HPC) 101 % of control

CN1CCOc2ccccc2OCCOCCOc2ccccc2OCC1
inactive: [1] 100 % of control | [2] 96 % of control | [3] 102 % of control

NC(=O)N=Nc1ccccc1
inactive: dose: 100.0 mg/kg/injection, schedule: Q01DX001 (ip), vehicle: other 105 % of control | dose: 200.0 mg/kg/injection, schedule: Q01DX001 (ip), vehicle: other 91 % of control | dose: 400.0 mg/kg/injection, schedule: Q01DX001 (ip), vehicle: other 98 % of control

O=[N+]([O-])c1cccc([N+](=O)[O-])c1/C=N/Nc1nnc(N/N=C/c2c([N+](=O)[O-])cccc2[N+](=O)[O-])c2ccccc12
inactive: [19] 100 % of control | [6] 103 % of control | [7] 100 % of control | [8] 100 % of control

CCCCC(CC)CC1CCCCC1O (stereo not drawn)
inactive: [9] 95 % of control | [16] 97 % of control | [10] 93 % of control | [17] 96 % of control | [18] 96 % of control

O=c1ccn(CCCOc2ccccc2)c(=O)[nH]1
inactive: dose: 25.0 mg/kg/injection, schedule: Q04DX002 (ip), vehicle: Klucel (hydroxypropylcellulose) (HPC) 102 % of control | dose: 50.0 mg/kg/injection, schedule: Q04DX002 (ip), vehicle: Klucel (hydroxypropylcellulose) (HPC) 102 % of control | [14] 106 % of control

CCCCN(CCCC)C(=N)c1c(C)cc(C)cc1C
inactive: dose: 2.5 mg/kg/injection, schedule: Q01DX001 (ip), vehicle: saline 101 % of control | dose: 5.0 mg/kg/injection, schedule: Q01DX001 (ip), vehicle: saline 105 % of control and 106 % of control and 108 % of control | dose: 7.0 mg/kg/injection, schedule: Q01DX001 (ip), vehicle: saline 94 % of control and 104 % of control | dose: 10.0 mg/kg/injection, schedule: Q01DX001 (ip), vehicle: saline 98 % of control and 101 % of control and 110 % of control | dose: 15.0 mg/kg/injection, schedule: Q01DX001 (ip), vehicle: saline 102 % of control and 104 % of control

O=C(O)c1ccccc1N=Cc1ccccc1
inactive: dose: 100.0 mg/kg/injection, schedule: Q04DX002 (ip), vehicle: saline with Tween-80 93 % of control | [20] 120 % of control | dose: 400.0 mg/kg/injection, schedule: Q04DX002 (ip), vehicle: saline with Tween-80 101 % of control
